From patent publication US8258151B2, “3-aminoimidazo [1,2-A] pyridine derivatives as SGLT inhibitors” (Merck Patent GmbH, priority 2006, dated 2012)

Assays:
SGLT1 = target: T1, SGLT1 (Homo sapiens, UniProt P13866); experiment: SGLT1 activity measurement: 14C-AMG uptake in BHK cells transfected with SGLT1; type: cell-based; details: AMG 50 μM, 37° C., 90 min
T1 construct: expressed in transfected cells
T1 sequence (P13866 1-664): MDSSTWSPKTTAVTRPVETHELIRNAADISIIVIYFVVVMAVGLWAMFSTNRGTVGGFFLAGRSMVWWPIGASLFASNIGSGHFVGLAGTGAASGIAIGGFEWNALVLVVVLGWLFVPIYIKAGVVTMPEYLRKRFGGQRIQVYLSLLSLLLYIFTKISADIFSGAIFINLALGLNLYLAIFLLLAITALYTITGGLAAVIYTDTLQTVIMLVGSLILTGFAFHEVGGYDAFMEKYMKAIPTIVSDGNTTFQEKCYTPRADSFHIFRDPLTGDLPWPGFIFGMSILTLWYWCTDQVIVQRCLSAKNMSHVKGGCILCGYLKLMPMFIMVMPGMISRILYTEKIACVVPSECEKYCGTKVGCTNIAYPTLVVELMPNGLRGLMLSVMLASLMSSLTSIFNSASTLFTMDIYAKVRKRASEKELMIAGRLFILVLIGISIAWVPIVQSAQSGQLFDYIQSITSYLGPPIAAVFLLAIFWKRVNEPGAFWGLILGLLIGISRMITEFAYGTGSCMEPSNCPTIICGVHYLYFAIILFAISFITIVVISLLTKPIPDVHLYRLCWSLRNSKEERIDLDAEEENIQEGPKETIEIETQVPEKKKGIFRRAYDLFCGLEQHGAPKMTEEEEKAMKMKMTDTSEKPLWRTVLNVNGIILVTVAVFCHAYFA
Outline: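 BHK21 cells stably transfected with human SLC5A1 were incubated with 14C-AMG (added solution at 50 μM) ± compound for 90 min at 37 °C. The buffer was 140 mM NaCl, HEPES/Tris, pH 7.4. Lysed-cell radioactivity was counted by scintillation, and non-specific uptake was measured in sodium-free sucrose buffer.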

SGLT2 = target: T2, SGLT2 (Homo sapiens, UniProt P31639); experiment: SGLT2 activity measurement: 14C-AMG uptake in BHK cells transfected with SGLT2; type: cell-based; details: AMG 2 mM, 37° C., 90 min
T2 construct: expressed in transfected cells
T2 sequence (P31639 1-672): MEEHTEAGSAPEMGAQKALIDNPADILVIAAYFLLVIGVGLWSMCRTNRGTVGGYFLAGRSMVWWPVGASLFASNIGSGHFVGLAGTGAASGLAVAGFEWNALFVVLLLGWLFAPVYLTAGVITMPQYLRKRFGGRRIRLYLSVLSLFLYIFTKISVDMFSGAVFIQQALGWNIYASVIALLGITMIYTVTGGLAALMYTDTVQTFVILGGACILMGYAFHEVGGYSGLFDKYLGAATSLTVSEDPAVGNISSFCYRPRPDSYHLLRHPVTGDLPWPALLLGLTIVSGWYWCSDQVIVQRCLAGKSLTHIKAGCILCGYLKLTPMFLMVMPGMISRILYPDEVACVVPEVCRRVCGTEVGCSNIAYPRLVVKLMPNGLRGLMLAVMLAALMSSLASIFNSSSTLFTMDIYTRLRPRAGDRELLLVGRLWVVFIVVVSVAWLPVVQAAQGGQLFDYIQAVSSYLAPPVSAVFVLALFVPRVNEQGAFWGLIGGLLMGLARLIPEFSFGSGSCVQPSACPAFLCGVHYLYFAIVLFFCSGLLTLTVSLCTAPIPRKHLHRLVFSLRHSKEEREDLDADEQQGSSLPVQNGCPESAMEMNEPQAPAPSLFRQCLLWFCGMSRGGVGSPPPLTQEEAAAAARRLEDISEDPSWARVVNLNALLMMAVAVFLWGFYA
Outline: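 BHK21 cells stably expressing human SGLT2 took up 14C-AMG (added as 2 mM solution) ± compound for 90 min at 37 °C in Na+-containing HEPES/Tris buffer, pH 7.4. Uptake was measured by scintillation counting after lysis. Non-specific uptake was defined in sodium-free sucrose buffer.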

SMILES	IC50 (SGLT1) [µM]	IC50 (SGLT2) [µM]
CCc1cccc(C)c1Nc1c(-c2ccccc2OCC(N)=O)nc2ccc(F)cn12 [Compound A174, 2-[2-(Aminocarbonylmethoxy)phenyl]-3-(2-methyl-6-ethylphenylamino)-6-fluoroimidazo-[1,2-a]pyridine]	> 10	0.01 to 1
COc1cc(C)c(-c2nc3c(F)cc(F)cn3c2Nc2c(Cl)cccc2Cl)c(OCC(N)=O)c1 [Compound A226, 2-[2-(Aminocarbonylmethoxy)-4-methoxy-6-methylphenyl]-3-(2,6-dichlorophenylamino)-6,8-difluoroimidazo[1,2-a]pyridine]	1 to 10	0.01 to 1
COc1ccc(-c2nc3ccc(F)cn3c2Nc2c(C)cccc2C)c(OCC(N)=O)c1OC [Compound A188, 2-[2-(Aminocarbonylmethoxy)-3,4-dimethoxy-phenyl]-3-(2,6-dimethylphenylamino)-6-fluoro-imidazo[1,2-a]pyridine]	> 10	1 to 10
CCc1cc(OC)cc(OCC(N)=O)c1-c1nc2ccc(F)cn2c1Nc1c(C)cccc1Cl [Compound A257, 2-[2-(Aminocarbonylmethoxy)-4-methoxy-6-ethylphenyl]-3-(2-chloro-6-methylphenylamino)-6-fluoroimidazo[1,2-a]pyridine]	1 to 10	0.01 to 1
COc1cc(OCC(N)=O)c(-c2nc3ccc(F)cn3c2Nc2c(C)cccc2C)c(C)c1Cl [Compound A231, 2-[2-(Aminocarbonylmethoxy)-5-chloro-4-methoxy-6-methylphenyl]-3-(2,6-dimethylphenyl-amino)-6-fluoroimidazo[1,2-a]pyridine]	1 to 10	0.01 to 1
COc1ccc(-c2nc3ccc(F)cn3c2Nc2c(C)cccc2C)c(OCC(N)=O)c1 [Compound A211, 2-[2-(Aminocarbonylmethoxy)-4-methoxy-phenyl]-3-(2,6-dimethylphenylamino)-6-fluoro-imidazo[1,2-a]pyridine]	> 10	0.01 to 1
CCc1cc(O)cc(OCC(N)=O)c1-c1nc2ccc(F)cn2c1Nc1c(C)cccc1C [Compound A102, 2-[2-(Aminocarbonylmethoxy)-6-ethyl-4-hydroxy-phenyl]-3-(2,6-dimethylphenylamino)-6-fluoro-imidazo[1,2-a]pyridine]	1 to 10	0.01 to 1
Cc1cccc(C)c1Nc1c(-c2c(Cl)cccc2OCC(N)=O)nc2ccc(F)cn12 [Compound A3, 2-[2-(aminocarbonylmethoxy)-6-chlorophenyl]-3-(2,6-dimethylphenylamino)-6-fluoroimidazo[1,2-a]pyridine]	1 to 10	0.01 to 1
Cc1cccc(Cl)c1Nc1c(-c2ccccc2OCC(N)=O)nc2ccccn12 [Compound A6, 2-[2-(Aminocarbonylmethoxy)phenyl]-3-(2-chloro-6-methylphenylamino)imidazo[1,2-a]-pyridine]	> 10	0.01 to 1
Cc1cccc(C(C)C)c1Nc1c(-c2ccccc2OCC(N)=O)nc2ccccn12 [Compound A7, 2-[2-(Aminocarbonylmethoxy)phenyl]-3-(2-isopropyl-6-methylphenylamino)imidazo-[1,2-a]pyridine]	> 10	1 to 10
COc1cc(C)c(-c2nc3ccc(F)cn3c2Nc2c(C)cc(C)cc2[N+](=O)[O-])c(OCC(N)=O)c1 [Compound A250, 2-[2-(Aminocarbonylmethoxy)-4-methoxy-6-methylphenyl]-3-(2,4-dimethyl-6-nitrophenyl-amino)-6-fluoroimidazo[1,2-a]pyridine]	> 10	0.01 to 1
COc1ccc(-c2nc3ccccn3c2Nc2c(C)cccc2Cl)c(OCC(N)=O)c1 [Compound A15, 2-[2-(Aminocarbonylmethoxy)-4-methoxy-phenyl]-3-(2-chloro-6-methylphenylamino)-imidazo[1,2-a]pyridine]	1 to 10	0.01 to 1
COc1cc(C)c(-c2nc3ccc(F)cn3c2Nc2c(C)cc(Br)c(C)c2Br)c(OCC(N)=O)c1 [Compound A249, 2-[2-(Aminocarbonylmethoxy)-4-methoxy-6-methylphenyl]-3-(2,5-dimethyl-4,6-dibromophenylamino)-6-fluoroimidazo[1,2-a]-pyridine]	1 to 10	1 to 10
COc1cc(C)c(-c2nc3c(F)cc(F)cn3c2Nc2c(C)cccc2C)c(OCC(N)=O)c1 [Compound A237, 2-[2-(Aminocarbonylmethoxy)-4-methoxy-6-methylphenyl]-3-(2,6-dimethylphenylamino)-6,8-difluoroimidazo[1,2-a]pyridine]	1 to 10	0.01 to 1
COc1cc(C)c(-c2nc3ccc(F)cn3c2Nc2c(Br)cc(F)cc2Br)c(OCC(N)=O)c1 [Compound A238, 2-[2-(Aminocarbonylmethoxy)-4-methoxy-6-methylphenyl]-3-(2,6-dibromo-4-fluorophenyl-amino)-6-fluoroimidazo[1,2-a]pyridine]	1 to 10	0.01 to 1
CCc1cccc(OCC(N)=O)c1-c1nc2ccc(F)cn2c1Nc1c(Cl)cccc1Cl [Compound A241, 2-[2-(Aminocarbonylmethoxy)-6-ethylphenyl]-3-(2,6-dichlorophenylamino)-6-fluoroimidazo-[1,2-a]pyridine]	0.01 to 1	0.01 to 1
CCc1cc(OCC(N)=O)cc(OCC(N)=O)c1-c1nc2ccccn2c1Nc1c(C)cccc1C [Compound A167, 2-[2-(Aminocarbonylmethoxy)-4-(amino-carbonylmethoxy)-6-ethylphenyl]-3-(2,6-dimethylphenylamino)imidazo[1,2-a]pyridine]	> 10	0.01 to 1
COc1ccc(-c2nc3ccccn3c2Nc2c(Cl)cccc2Cl)c(OCC(N)=O)c1 [Compound A16, 2-[2-(Aminocarbonylmethoxy)-4-methoxy-phenyl]-3-(2,6-dichlorophenylamino)imidazo-[1,2-a]pyridine]	1 to 10	0.01 to 1
CCc1cc(OC)cc(OCC(N)=O)c1-c1nc2c(F)cc(F)c(N)n2c1Nc1c(C)cccc1C [Compound A227, 2-[2-(Aminocarbonylmethoxy)-4-methoxy-6-ethylphenyl]-3-(2,6-dimethylphenylamino)-5-amino-6,8-difluoroimidazo[1,2-a]pyridine]	1 to 10	0.01 to 1
Cc1cccc(Cl)c1Nc1c(-c2ccccc2OCC(N)=O)nc2cccc(C)n12 [Compound A10, 2-[2-(Aminocarbonylmethoxy)phenyl]-3-(2-chloro-6-methylphenylamino)-5-methyl-imidazo[1,2-a]pyridine]	1 to 10	0.01 to 1
COc1cc(C)c(-c2nc3ccc(F)cn3c2Nc2ccc(F)cc2F)c(OCC(N)=O)c1 [Compound A229, 2-[2-(Aminocarbonylmethoxy)-4-methoxy-6-methylphenyl]-3-(2,4-difluorophenylamino)-6-fluoroimidazo[1,2-a]pyridine]	> 10	1 to 10
Cc1cccc(C)c1Nc1c(-c2c(C)cc(OS(=O)(=O)N(C)C)cc2OCC(N)=O)nc2ccc(F)cn12 [Compound A213]	> 10	0.01 to 1
COc1cc(C)c(-c2nc3c(N)cccn3c2Nc2c(C)cccc2C)c(OCC(N)=O)c1 [Compound A191, 2-[2-(Aminocarbonylmethoxy)-4-methoxy-6-methylphenyl]-3-(2,6-dimethylphenylamino)-8-aminoimidazo[1,2-a]pyridine]	> 10	0.01 to 1
CCc1cc(OC)cc(OCC(N)=O)c1-c1nc2ccccn2c1Nc1c(C)cccc1C [Compound A202, 2-[2-(Aminocarbonylmethoxy)-4-methoxy-6-ethylphenyl]-3-(2,6-dimethylphenylamino)-imidazo[1,2-a]pyridine]	1 to 10	0.01 to 1
